According to the NIST ThermoML archive (doi:10.1016/j.jct.2004.05.008):

Assay: molar heat capacity at constant pressure
Conditions: 101.33 kPa

O=C1OC(=O)C2=C1CCCC2 [3,4,5,6-tetrahydrophthalic anhydride]
Conditions	molar heat capacity at constant pressure [J/K/mol]
222.27 K, Crystal	111.19
223.72 K, Crystal	112.09
225.46 K, Crystal	113.46
227.04 K, Crystal	114.91
228.58 K, Crystal	116.07
230.24 K, Crystal	117.61
231.74 K, Crystal	119.05
233.19 K, Crystal	120.59
234.7 K, Crystal	122.14
236.22 K, Crystal	123.06
237.68 K, Crystal	124.72
239.17 K, Crystal	126.14
240.66 K, Crystal	127.28
242.12 K, Crystal	128.82
243.56 K, Crystal	131.28
244.92 K, Crystal	131.95
246.4 K, Crystal	132.94
247.8 K, Crystal	133.95
249.31 K, Crystal	135.13
250.75 K, Crystal	136.4
252.21 K, Crystal	137.63
253.66 K, Crystal	138.64
255.1 K, Crystal	140.01
256.48 K, Crystal	141.43
257.94 K, Crystal	143.17
259.38 K, Crystal	144.54
260.76 K, Crystal	146.26
262.22 K, Crystal	147.86
263.56 K, Crystal	149.6
264.98 K, Crystal	151.29
266.44 K, Crystal	153.66
267.8 K, Crystal	155.02
269.17 K, Crystal	156.54
270.62 K, Crystal	158.31
271.99 K, Crystal	160.29
273.83 K, Crystal	162.61
276.06 K, Crystal	165.27
278.26 K, Crystal	168.2
280.47 K, Crystal	170.86
282.77 K, Crystal	174.18
285 K, Crystal	177.2
287.13 K, Crystal	180
289.24 K, Crystal	183.15
291.4 K, Crystal	185.52
293.54 K, Crystal	188.07
295.62 K, Crystal	190.23
297.76 K, Crystal	193.49
299.9 K, Crystal	196.12
302.04 K, Crystal	198.91
304.16 K, Crystal	201.6
306.28 K, Crystal	204.33
308.44 K, Crystal	208.09
310.59 K, Crystal	210.93
312.73 K, Crystal	214.84
314.77 K, Crystal	218
316.97 K, Crystal	220.39
319 K, Crystal	224.36
321.06 K, Crystal	227.34
323.12 K, Crystal	231.9
325.11 K, Crystal	237.01
327.12 K, Crystal	241.19
329.09 K, Crystal	246.67
330.99 K, Crystal	261.9
346.46 K, Liquid	275.09
348.18 K, Liquid	275.94
350 K, Liquid	277.07
351.67 K, Liquid	278.18
353.41 K, Liquid	279.59
355.08 K, Liquid	280.65
356.67 K, Liquid	281.82
360.3 K, Liquid	284.63
